The values that follow come from US6531582B1, “2-O-(9z,12z-octadecadienoyl)-3-O-[α-D-galactopyranosyl-(1″-6′)-O-α-D-galactopyranosyl]glycerol and pharmaceutical composition containing the same” (priority 2000, dated 2003).

Entries after “also recorded” stand apart in the source; their conditions may differ.

The test system of one assay is edema of arthritis. As to the kind of experiment: Inhibitory effect on edema of arthritis (Zymosan-A/Freund's adjuvant induced paw edema). The assay is classed as in vivo. Particulars: albino rats; for inhibitory effect on edema: test for edema induction. Here is the method: In order to observe the inhibitory effect on edema of the pharmaceutical composition of the present invention, 6 albino rats weighing 200 g were used per test group to induce edema by injecting the mixture of 0.5 ml of Zymosan-A (20 mg/ml/kg) and 0.5 ml of Freund's adjuvant into ST36 position of left paw and then observed for the progress of edema for 70 days by taking a photograph before and after induction of edema. The water extract and organic solvent fractions of the pharmaceutical composition of the present invention were respectively constituted in the concentration of 0.6 mg/ml and then orally administered for 14 days to albino rats in an amount of 1 ml per kg of body weight once a day to determine the inhibitory effect on edema. As the test sample, the organic solvent fractions of the pharmaceutical composition including ABE, ABB, ABW, CBE, CBB, CBW, LNE, LNB, LNW, CRB, CRW, SSH and SSW were respectively used. As the result of this test, it was observed that edema was started to induce on day 4 and reached the peak point after about 45 days. The period for this test was established as 70 days after edema induction to observe the inhibitory effect on edema of the extracts of the present invention. As the result, the edema size was measured using a precision gauge.
The inihibitory effect on edema of the compound according to the present invention as measured after 70 days have passed are listed in the following Tables 2 and 3 and FIG. 4.

The subject of assay [1] is CAM formation induced by synovial cells. As to the kind of experiment: Angiogenesis of synovial cells in chorioallantoic membrane (CAM) of fertilized egg. The format is in vivo. Particulars: 10 μg/ml on CAM, synovial cells injected, compared to control group. The method, then: In order to determine the effect of the organic solvent fractions on the angionenesis of synovial cells using the cells separated in Experiment 2, synovial cells were injected into fertilized egg and then incubated in an incubator at 37° C. for 3 days to observe the formation of chorioallantoic membrane (CAM). In the present state, the fractions separated according to the above method were respectively distributed on CAM at the concentration of 10 μg/ml to observe the degree of CAM decrease.

Assay [2] concerns NO formation in RAW 264.7 cell lines. As to the kind of experiment: NO formation in macrophage cells stimulated by lipid polysaccharide (Greiss reagent). Particulars: 10 μg/ml, LPS-stimulated RAW 264.7. The assay is classed as cell-based. The method, then:
FIG. 7 is (a) a bar graph showing the inhibition of NO formation when Raw 264.7 cell lines are treated with the organic solvent fraction of a single drug of the pharmaceutical composition at the concentration of 10 μg/ml for 24 hours an then stimulated with LPS, and (b) a bar graph showing the inhibition of NO formation when the cell lines treated with CBB fraction and LNE fraction as the organic solvent fractions are stimulated with LPS according to the same manner as above (a).
In order to identify whether the extracts obtained according to the present invention can inhibit the synthesis of nitric oxide (NO) as the potent inducer of inflammation in blood due to edema as above, macrophage RAW 264.7 cell lines were distributed in a 96-well microplate at the concentration of 10^3 cells per well and then incubated for 12 hours. Then, lipid polysaccharide was added to the plate at the concentration of 50 ng/well to stimulate the cells for 2 hours. The respective organic solvent fractions were added to the plate to the final concentration of 10 μg/ml followed by addition of 50 μl of Greiss reagent solution, and then allowed to react together at room temperature. Then, the absorbance of the plate was measured at 540 nm of ELISA (enzyme-linked immunosorbent assay) reader. […]

The test system of assay [3] is Raw 264.7 cell lines. As to the kind of experiment: Induction of apoptosis of macrophages. The format is cell-based. Particulars: Raw 264.7, 24 hours, microscopy. Here is the method: (§1) In order to determine whether the compound identified as the effective component of the pharmaceutical composition separated according to the present invention can induce the apoptosis of Raw 264.7 cell lines as macrophage involved in inflammatory reaction and synovial cells, the cells were distributed on 5% DMEM medium supplemented with penicillin/streptomycin in a 6-well culture dish at the concentration of 10^4 cells and then incubated at 37° C. for 24 hours while adding the extractions as above at the concentration of 10 μg/ml to observe the reaction. Apoptosis was examined by taking a photograph of apoptosis-induced cells under a polarizing microscope of 200 magnifications.

The test system of a further assay is synovial cells. As to the kind of experiment: Induction of apoptosis of synovial cell lines. The format is cell-based, human. Particulars: 24 hours, microscopy. Here is the method:
The synovial cells separated from outpatients suffering from rheumatoid arthritis were distributed on 5% DMEM medium supplemented with penicillin/streptomycin in a 6-well culture dish at the concentration of 10^4 cells and then incubated for 24 hours at 37° C. to observe the surviving cells. In order to determine the presence or absence of cells and the proliferating state of cells, apoptosis-induced cells were examined by taking their photographs under a phase-contrast microscope of 200 magnifications.
as §1

Assay [4] deals with Raw 264.7 cell lines. As to the kind of experiment: Effect on cell cycle of macrophage cells (flow cytometry). The format is cell-based. Particulars: Raw 264.7, LPS-stimulated, 20 μg/ml. The method, then: (§2) Two kinds of cells were incubated as in Experiment 6 and then washed with PBS (phosphate-buffered saline). LPS was distributed on the respective dishes at the concentration of 50 μg/ml to stimulate the cells. Then, the extract according to the present invention was added over 2 hours so as to make the final concentration of 20 μg/ml. The supernatant was removed, washed with PBS and then treated with trypsin. The cells were harvested, introduced into Eppendorf tube and then centrifuged at 1,000 rpm for 5 minutes to remove the supernatant. The residue was fixed with addition of 1 ml of 100% ethanol. At this time, the mixture of 5 μg/ml propidium iodide and RNAse was separately prepared. The fixed cells were centrifuged to remove the supernatant and then washed once with PBS. Simultaneously, the staining agent as previously prepared above was added to the fixed cells and then warmed in an incubator at 37° C. for 30 minutes. The cells stained with propidium iodide was sealed with foil, stored at 4° C. and then subjected to a flow cytometry analysis using FACscan (Becton Dickinson, Calif.) as the analyzing apparatus.
On the technique in general: A flow cytometer gives signals particle by particle.

A further assay deals with synovial cell lines. As to the kind of experiment: Effect on cell cycle of synovial cell lines (flow cytometry). The assay is classed as cell-based, human. To be noted: LPS-stimulated, 20 μg/ml. The method, then: as §2
The next assay relates to iNOS. As to the kind of experiment: Inhibition of iNOS expression at the level of transcription through RT-PCR. The format is cell-based, human. Particulars: FIG. 12a, lanes 1-8; 50 μg/ml, LPS-stimulated. Here is the method:
(§3) In order to identify the ingredient having an inhibitory activity against COX-II and inducible nitric oxide synthetase (iNOS) as the causal factors of rheumatoid arthritis in the extract used as the effective component of the pharmaceutical composition according to the present invention as in Experiment 7 above, the cells were distributed in T75 flask at the concentration of 10^5 cells, incubated for 7 days and then stimulated for 2 hours by introducing LPS in the flask at the concentration of 50 ng/ml. Then, the extract of the present invention was added so as to make the final concentration of 50 μg/ml. The cells were harvested into a 1.5 ml Eppendorf tube and centrifuged with 15,000 rpm at 4° C. for 15 minutes to remove the supernatant. 200 μl of RNAzol solution was added to the residue followed by addition of 50 μl of chloroform. The cells were lysed by careful pippeting, and then centrifuged with 15,000 rpm at 4° C. for 15 minutes to recover a total RNA, which was then precipitated at 4° C. for 15 minutes by adding the same volume of isopropanol, washed once with 75% ethanol and then dried. The cell lysate was dissolved by adding 20 μl of RNase free D2O and then warming the mixture at 60° C. for 30 minutes. […]

The subject of a further assay is COX-II. As to the kind of experiment: Inhibition of COX-II expression at the level of transcription through RT-PCR. The assay is classed as cell-based, human. Here is the method: as §3
The test system of assay [5] is cartilage and bone of arthritic joint. As to the kind of experiment: Joint rupture in edema-inhibited albino rats by X-ray analysis. The assay is classed as in vivo. To be noted: edema-induced albino rats, oral, about 70 days. The method, then: FIG. 13 is X-ray photograph to show the 70-days inhibitory effect on edema as one of chronic and degenerative osteopathological symptoms of arthritis by treating the induced edema with respective fractions obtained as the organic solvent fractions of the pharmaceutical composition in an amount of 75 μg/ml for 2 weeks via oral route.
The respective water extract and organic solvent fractions were orally administered for 14 days at the concentration of 75 μg/ml to investigate their inhibitory effect on edema as in Experiment 1. The test albino rats were anesthetized to take X-ray photograph.

The test system of assay [6] is nogo-A expressed U-373 MG glioblastoma cell line. As to the kind of experiment: Therapeutic effect on vertebral neuroparalysis (neurite regeneration in nogo-A expressing cells). The assay is classed as cell-based. Particulars: nogo-A expressed U-373 cell lines, phase-contrast microscopy. From the text:
Simultaneously, it was also observed whether neurites can be regenerated by treatment with neuronal growth factor (NGF) or whether the fractions of the present invention can provide the same effect, by taking a photograph with a phase-contrast microscope of 200 magnifications.

Assay [7] is described as follows: Effect of the compounds separated from Cibotii rhizoma on arthritis. Particulars: summary statement.
Another assay deals with smooth muscle. Particulars: cited from earlier work.

With “2-O-(9z,12z-octadecadienyl)-3-O-[α-galactopyranosyl-(1″-6′)-O-α-D-galactopyranosyl]glycerol [CBB-13]”, in the assay with edema of arthritis (Table 3 (unit not given), oral, baseline before treatment, in mm), the “edema size, Before treatment” value is 14.4 ± 2. In addition, in the assay with edema of arthritis (Table 3 (unit not given), oral, measured after 70 days, in mm), the “edema size, After treatment” value is recorded as 2.5 ± 1. Moreover, the “inhibitory effect on edema” value in the assay with edema of arthritis is recorded as “potent inhibitory effect on edema; also recorded: most significant”. Also, the “inhibition of induction of CAM formation” value in assay [1] is recorded as “more strongly inhibited the induction of CAM formation”. Further, the “inhibition of NO formation” value in assay [2] is on record as “stronger inhibitory effect on NO formation”. The induction of apoptosis result in the assay on Raw 264.7 cell lines [3] and in the assay on synovial cells was “more strongly inducing the apoptosis” in each case. The “effect on cell cycle” value in the assay with Raw 264.7 cell lines [4] was “induced the apoptosis”; in the assay with synovial cell lines, “pattern of G0/G1 arrest”. Further, the “effect on iNOS expression (RT-PCR, band near 278 bp)” value in the assay on iNOS is given as “have an effect on the protein expression”. The “effect on COX-II expression (RT-PCR)” value with COX-II (FIG. 12a, lanes 1-8, 50 μg/ml, LPS-stimulated) is “inhibitory effect at the level of transcription”; in the assay on COX-II (FIG. 12c, respective fractions), “strongly inhibit the protein expression”. Further, the “osteogenesis (X-ray)” value in assay [5] is “effect of stimulating the osteogenesis”. Further, the “rupture of cartilage in arthritic portion (X-ray)” value in assay [5] is on record as “inhibits the rupture of cartilage in arthritic portion”. Moreover, the regeneration of neurites result in assay [6] is reported as “neurites were lengthened”. For the same molecule, in [7], the “pharmacological effect on arthritis” value is “most excellent pharmacological effect”.
For the molecule `Cc1c(O)c2c(c(C)c1CCO)C(=O)C(C)(C)C2` [CBB-11, onitin], the “pharmacological effect on arthritis” value in assay [7] was “moderate pharmacological effect”. In addition, the “activity for relaxing smooth muscle” value in the assay on smooth muscle is given as “activity for relaxing smooth muscle”.
Consider `CC[C@H](CC[C@@H](C)[C@H]1CC[C@H]2[C@@H]3CC=C4C[C@@H](O[C@@H]5O[C@H](CO)[C@@H](O)[C@H](O)[C@H]5O)CC[C@]4(C)[C@H]3CC[C@]12C)C(C)C` [CBB-12, daucosterol], for which, in the assay with edema of arthritis, the “inhibitory effect on edema” value is recorded as “potent inhibitory effect on edema”.
